Assay [1] concerns CD37-positive human chronic lymphocytic leukemia cell line JVM-13. The experiment in a line: Cell growth inhibition by combination with BTK inhibitors (Celltiter-Glo 2.0). In kind it is cell-based. The following applies: JVM13, 144 h, read-out: D2 (50% cell growth inhibition concentration, BTK inhibitor alone). The procedure:
(§1) During the culture period, the cells were cultured under conditions of 37°C and 5% CO2 in all the cases. The cells thus cultured for 6 days were reacted using Celltiter-Glo 2.0 Cell Viability Assay (Promega Corp,) in accordance with the attached manual, followed by the measurement of the amount of luminescence from each well using a plate reader (Envision 2105 XCite multimode plate reader, PerkinElmer, Inc.). […] Cell growth inhibition rate (%) = (T/C) × 100 [formula]
(§2) From the calculated 50% cell growth inhibition concentrations (anti-CD37 antibody-drug conjugate (1) alone: D1, each BTK inhibitor alone: D2, anti-CD37 antibody-drug conjugate (1) in the combination: d1, each BTK inhibitor drug in the combination: d2), a combination index (CI) was calculated according to the following formula, and assessed as a synergistic effect with CI < 1, an additive effect with CI = 1, and an antagonizing effect with CI > 1 (see Adv. Enzyme Regul. 1984, P. 2227-55) . CI = (d1/D1) + (d2/D2) [formula]
(In general: In ATP-based viability assays light output follows the ATP content of the culture.)

Assay [2] has as its system CD37-positive human chronic lymphocytic leukemia cell line JVM-2. Described as above. It is filed as cell-based. The following applies: read-out: D2 (50% cell growth inhibition concentration, BTK inhibitor alone). How it is done:
as §1, §2

In assay [3] the test system is CD37-positive human chronic lymphocytic leukemia cell line JVM-3. The description is as above. It is filed as cell-based. Particulars: read-out: D2 (50% cell growth inhibition concentration, BTK inhibitor alone). How it is done: as §1, §2
Assay [4] concerns CD37-positive human chronic lymphocytic leukemia cell line JVM-13. Briefly: Antitumor effect - (4): JVM-13 subcutaneous xenograft. Particulars: JVM-13 xenograft; for TGI (%): Day 35, grouping Day 14, ADC (1) 0.3 mg/kg i.v. once, rituximab 10 mg/kg i.v. once, bendamustine 12.5 mg/kg i.p. day of grouping and next day, venetoclax 100 mg/kg oral every day, ibrutinib 200 mg/kg oral every day; for CR (%) on final day of observation / Change from baseline (%): ADC (1) 0.3 mg/kg i.v., rituximab 10 mg/kg i.v., bendamustine 12.5 mg/kg i.p. x2, venetoclax 100 mg/kg oral daily, ibrutinib 200 mg/kg oral daily; for Change from baseline (%): tumor volume on Day 35 vs Day 14 baseline.

The text below walks through data of EP4699622A1, “COMBINATION OF ANTIBODY-DRUG CONJUGATE AND OTHER MEDICINE” (Daiichi Sankyo Company, Limited, priority 2023, dated 2024).

Like-named read-outs stand apart in the source and are kept apart here.

For the compound `CC#CC(=O)N1CCC[C@H]1c1nc(-c2ccc(C(=O)Nc3ccccn3)cc2)c2c(N)nccn12` [Acalabrutinib, acalabrutinib], the IC50 in assay [1] (JVM-13, 6 days culture) was 7.15 µM; in assay [2] (144 h, JVM-2, 6 days culture) it was 25.8 µM; in assay [3] (144 h, JVM-3, 6 days culture), 16.6 µM.

Turning to `C=CC(=O)N1CCC[C@@H](n2nc(-c3ccc(Oc4ccccc4)cc3)c3c(N)ncnc32)C1` [Ibrutinib, ibrutinib], the IC50 in assay [1] was 0.58 µM. In addition, the IC50 in assay [2] (JVM-2, 144 h) was 1.19 µM. The IC50 in assay [3] (JVM-3, 144 h) came to 0.27 µM. For the same compound, in assay [4], the “TGI (%)” value is on record as -12%, the “CR (%) on final day of observation” value came to 0% and the “Change from baseline (%)” value worked out at 776.7%.

`CC1(C)CCC(CN2CCN(c3ccc(C(=O)NS(=O)(=O)c4ccc(NCC5CCOCC5)c([N+](=O)[O-])c4)c(Oc4cnc5[nH]ccc5c4)c3)CC2)=C(c2ccc(Cl)cc2)C1` [Venetoclax, venetoclax]: in assay [4], the “TGI (%)” value is 25%, the “CR (%) on final day of observation” value worked out at 0% and the “Change from baseline (%)” value was found to be 490.9%.

As to `C=CC(=O)N1CCC([C@@H]2CCNc3c(C(N)=O)c(-c4ccc(Oc5ccccc5)cc4)nn32)CC1` [Zanubrutinib, zanubrutinib], the IC50 in assay [1] (JVM-13, 6 days culture) was determined as 2.83 µM; in assay [2] (144 h, JVM-2, 6 days culture), 6.86 µM; in assay [3] (144 h, JVM-3, 6 days culture), 17.9 µM.
